Measurements reported in PMC10175484, “Identification of three elevenin receptors and roles of elevenin disulfide bond and residues in receptor activation in Aplysia californica” (Scientific Reports, 2023).
Where two headings read alike, the source gives them in different places. Where a SMILES comes first, the peptide text is derived from it. Bridges are numbered along the chain shown (N, C = ends).

What was measured:
apElevR1 = assay: IP1 accumulation assay, apElevR1 in CHO-K1 cells; format: cell-based, Aplysia californica; details: for apElevR1 Log[EC50] (M): logarithm of molar EC50, IP1 accumulation, CHO-K1 transiently expressing apElevR1 (pcDNA3.1(+)), no Gα16 co-transfection, peptide 10^-12 to 10^-4 M, 1 h incubation, mean ± SEM, n = 3, NA = no activation, SEM
Description: (§1) To determine whether the Aplysia elevenin can activate the putative elevenin receptors, we cloned apElevRs to pcDNA3.1 (+) plasmid and transfected the three apElevRs in CHO-K1 cells. We used an IP1 accumulation assay to measure the concentration of IP1, which is a by-product in the Gαq signaling pathway, to provide evidence for the activation of receptors by elevenin. […] Initially, we used the elevenin peptide at two concentrations of 10^–11 M and 10^–4 M to screen apElevR1, apElevR2, and apElevR3. […] Further, we used different concentration gradients of elevenin, ranging from 10^–12 to 10^–4 M, to generate the dose–response curves (Fig. 8B–E).
(§2) Gαq-coupled GPCRs stimulate PLC-β activity, resulting in increased cellular D-Myo-Inositol 1-Phosphate (IP1). When the G protein-coupled receptor (GPCR) expressed in CHO-K1 cells (Procell, CL-0062) is activated, it is generated by the Gαq pathway through the appropriate ligand, and IP3 is formed which is degraded to IP1. Therefore, IP1 can be used as an alternative to IP3. First, the putative receptor cloned into the mammalian expression vector pcDNA3.1( +) of Aplysia was transiently expressed in CHO-K1 cells. CHO-K1 cells were cultured in F-12 K medium (Gibco, 21,127–022) containing 10% fetal bovine serum (Genial, G11-70,500) at 37 °C and 5% CO2. When the cell density in the 6-well plate reached 70–90%, 1.5 μg of putative receptor plasmid [in pcDNA3.1( +)] was mixed with 200 μl buffer (Polyplus) in a 1.5 ml EP tube and incubated at room temperature for 10 min. The DNA/Transfection reagent (Polyplus) mixture was then added dropwise to the 6-well plate, mixed gently, and the cells were incubated overnight at 37 °C and 5% CO2. The next day, cells were digested, counted, diluted to a density of 40,0000 cells/ml, and replated in a white 384-well assay plate (Greiner bio-one, B14061RI), each well inoculated with the diluted liquid 50 μl and incubate overnight at 37 °C in 5% CO2. On the third day, the CHO cells were incubated for 1 h after adding peptide. The activation of putative receptors was detected by monitoring IP1 accumulation using the IP1 detection kit in Tecan Spark (Cisbio, 62IPAPEB). All procedures were performed according to the manufacturer's instructions for the IP1 assay kit. The elevenin peptide and analogs were synthesized by Sangon Biotech or Guoping Pharmaceutical (Supplementary Fig. 4) and were aliquoted in 50 nmol EP tubes and stored at -20 °C until use.
(§3) Dose–response curves and bar graphs for experimental data were plotted using Prism software (GraphPad). Data are expressed as the mean ± SEM. Final EC50 values are rounded to two significant figures. All experimental data were taken from individual animals or preparations, and n refers to the number of preparations. Data were considered significant when P < 0.05. Statistical tests were performed using Prism software. They included Student’s t-test (two groups) and one-way ANOVA (three or more groups).

apElevR2 = assay: IP1 accumulation assay, apElevR2 in CHO-K1 cells; format: cell-based, Aplysia californica; details: for apElevR2 Log[EC50] (M): logarithm of molar EC50, CHO-K1 transiently expressing apElevR2 (pcDNA3.1(+)), no Gα16 co-transfection, peptide 10^-12 to 10^-4 M, 1 h incubation, mean ± SEM, n = 3, SEM; for apElevR2 Log[EC50] (M) / EC50: IP1 accumulation, NA = no activation
Description: as §1, §2, §3

apElevR3 = assay: IP1 accumulation assay, apElevR3 in CHO-K1 cells; format: cell-based, Aplysia californica; details: for apElevR3 Log[EC50] (M): logarithm of molar EC50, IP1 accumulation, CHO-K1 transiently expressing apElevR3 (pcDNA3.1(+)), no Gα16 co-transfection, peptide 10^-12 to 10^-4 M, 1 h incubation, mean ± SEM, n = 3, NA = no activation, SEM
Description: as §1, §2, §3

[1] = target: elevenin receptor (first of two listed); details: CHO cells, Ca2+ response, no Gα16, cited from earlier work
Description: (§4) Although the function of elevenin was first studied in C.elegans, its actual elevenin receptors have not yet been found in this species. In fact, prior to our work, there are a total of 6 elevenin receptors that have been described (Fig. 7). First, there are two GPCRs that have been deorphanized as elevenin receptors in both annelid Platynereis and arthropod Ixodes[2],[9]^. There is a single elevenin receptor in Nilaparvata lugens or Bombus terrestris[23] although we could not find the sequence for Nilaparvata NlA42 in NCBI. Second, in annelid Platynereis, the EC50 values of two elevenin recep ...

[2] = target: elevenin receptor (second of two listed); details: CHO cells, Ca2+ response, no Gα16, cited from earlier work
Description: as §4

AstC-R = details: peptide could activate AstC-R; cited from earlier work
Description: It is notable that there are 6 residu ...

[3] = CHO-K1 transiently expressing apElevR2, no Gα16, 1 h peptide incubation, average of n = 3, rounded to two significant figures, read-out: apElevR2 [EC50]
[4] = screen at 10^-4 M compared with 10^-11 M peptide, CHO-K1, n = 3, Student's t-test (Fig. 8A)

Compound: CC[C@H](C)[C@H](NC(=O)[C@H](CCCNC(=N)N)NC(=O)[C@@H]1CCCN1C(=O)[C@@H](N)CCCNC(=N)N)C(=O)N[C@@H](CC(=O)O)C(=O)N[C@H]1CSSC[C@@H](C(=O)N[C@@H](CCCNC(=N)N)C(=O)NCC(=O)N[C@H](C(=O)N[C@@H](CO)C(=O)N[C@@H](C)C(=O)O)C(C)C)NC(=O)[C@H](C)NC(=O)[C@@H]2CCCN2C(=O)[C@H](C)NC(=O)[C@H](C)NC(=O)[C@H](C(C)C)NC(=O)[C@H](Cc2ccccc2)NC(=O)[C@H](CCCNC(=N)N)NC(=O)[C@H]([C@@H](C)O)NC1=O [[Ala^11]Elevenin] (H-RPRIDCTRFVAAPACRGVSA-OH; disulfide 6-15; N-terminus and C-terminus assumed)
- apElevR1 Log[EC50] (M) (apElevR1): -6.97 ±0.20 M
- apElevR2 Log[EC50] (M) (apElevR2): -6.62±0.10 M
- apElevR3 Log[EC50] (M) (apElevR3): -6.55±0.21 M

Compound: LDCRKYPFYYRCRGISA [Ixodes elevenin, elevenin of arthropod Ixodes scapularis, ligand of its two elevenin receptors (literature)]
- EC50 ([1]; Ixodes): 0.01 nM
- EC50 ([2]; Ixodes): 5.59 nM

Compound: CC(C)[C@@H]1NC(=O)[C@H](Cc2ccccc2)NC(=O)[C@H](CCCNC(=N)N)NC(=O)[C@H]([C@@H](C)O)NC(=O)[C@@H](N)CSSC[C@@H](C(=O)O)NC(=O)[C@H](C)NC(=O)[C@@H]2CCCN2C(=O)[C@H](C)NC(=O)[C@H](Cc2ccccc2)NC1=O [Elevenin6-15] (H-CTRFVFAPAC-OH; disulfide 1-10)
- Effect on apElevR1 (IP1 dose-response), in words (apElevR1; dose-response, CHO-K1, n = 3 (Fig. 10A, G)): did not have any effect
- EC50 (apElevR2; [3]): > 10000 nM
- apElevR3 Log[EC50] (M) (apElevR3): -5.20±0.36 M

Compound: CC(C)[C@@H]1NC(=O)[C@H](Cc2ccccc2)NC(=O)[C@H](CCCNC(=N)N)NC(=O)[C@H]([C@@H](C)O)NC(=O)[C@@H](NC(=O)[C@@H](N)CC(=O)O)CSSC[C@@H](C(=O)N[C@@H](CCCNC(=N)N)C(=O)NCC(=O)O)NC(=O)[C@H](C)NC(=O)[C@@H]2CCCN2C(=O)[C@H](C)NC(=O)[C@H](Cc2ccccc2)NC1=O [Elevenin5-17] (H-DCTRFVFAPACRG-OH; disulfide 2-11; N-terminus and C-terminus assumed)
- apElevR1 Log[EC50] (M) (apElevR1): -5.11±0.28 M
- EC50 (apElevR2; [3]): > 10000 nM
- apElevR2 Log[EC50] (M) (apElevR2): -4.31±0.65 M
- apElevR3 Log[EC50] (M) (apElevR3): -5.52±0.18 M

Compound: CC[C@H](C)[C@H](NC(=O)[C@H](CCCNC(=N)N)NC(=O)[C@@H]1CCCN1C(=O)[C@@H](N)CCCNC(=N)N)C(=O)N[C@@H](CC(=O)O)C(=O)N[C@H]1CSSC[C@@H](C(=O)N[C@@H](CCCNC(=N)N)C(=O)NCC(=O)N[C@H](C(=O)N[C@@H](CO)C(=O)N[C@@H](C)C(=O)O)C(C)C)NC(=O)[C@H](C)NC(=O)[C@H](C)NC(=O)[C@H](C)NC(=O)[C@H](Cc2ccccc2)NC(=O)[C@H](C(C)C)NC(=O)[C@H](Cc2ccccc2)NC(=O)[C@H](CCCNC(=N)N)NC(=O)[C@H]([C@@H](C)O)NC1=O [[Ala^13]Elevenin] (H-RPRIDCTRFVFAAACRGVSA-OH; disulfide 6-15; N-terminus and C-terminus assumed)
- apElevR1 Log[EC50] (M) (apElevR1): -6.92±0.13 M
- EC50 (apElevR2; Table 2 prints no unit, the same values are in nM in Fig. 9J, CHO-K1, n = 3, read-out: EC50 values on apElevR2 (Table 2)): > 10000 nM
- apElevR2 Log[EC50] (M) (apElevR2): -4.48±0.21 M
- apElevR3 Log[EC50] (M) (apElevR3): -6.42±0.34 M

Compound: CC[C@H](C)[C@H](NC(=O)[C@H](CCCNC(=N)N)NC(=O)[C@@H]1CCCN1C(=O)[C@@H](N)CCCNC(=N)N)C(=O)N[C@@H](CC(=O)O)C(=O)N[C@H]1CSSC[C@@H](C(=O)N[C@@H](CCCNC(=N)N)C(=O)NCC(=O)N[C@H](C(=O)N[C@@H](CO)C(=O)N[C@@H](C)C(=O)O)C(C)C)NC(=O)[C@H](C)NC(=O)[C@@H]2CCCN2C(=O)[C@H](C)NC(=O)[C@H](Cc2ccccc2)NC(=O)[C@H](C(C)C)NC(=O)[C@H](Cc2ccccc2)NC(=O)[C@H](CCCNC(=N)N)NC(=O)[C@H]([C@@H](C)O)NC1=O [Elevenin] (H-RPRIDCTRFVFAPACRGVSA-OH; disulfide 6-15; N-terminus and C-terminus assumed)
- apElevR1 Log[EC50] (M) (apElevR1): -7.60±0.40 M
- Activation of apElevR1 in screening (IP1), in words (apElevR1; [4]): could not activate
- apElevR2 Log[EC50] (M) (apElevR2): -8.93±0.34 M
- Activation of apElevR2 in screening (IP1), in words (apElevR2; [4]): could not activate
- apElevR3 Log[EC50] (M) (apElevR3): -8.51±0.37 M
- Activation of apElevR3 in screening (IP1), in words (apElevR3; [4]): could not activate

Compound: PDCTRFVFHPSCRGVAA [Platynereis elevenin, elevenin of annelid Platynereis dumerilii, ligand of its two elevenin receptors (literature)]
- EC50 ([1]; Platynereis): 62 nM
- EC50 ([2]; Platynereis): 1.3 nM

Compound: AstC without a disulfide bond: Aplysia allatostatin-C (SHYSSMCMFNVVACY) without a disulfide bond (no disulfide bond)
- EC50 value on AstC-R compared to AstC with the disulfide bond, in words (AstC-R): significantly higher
